Patent US8653057B1, “Prophylactic perioperative testosterone supplementation for protection of and recovery of function” (The Regents of the University of California, priority 2010, dated 2014)

Assays:
[1] = testosterone supplementation of low-testosterone patients around radical prostatectomy (anecdotal results); assay type: in vivo, men
Text: Therefore men with either low or low normal testosterone levels can be treated with testosterone (or other androgens such as synthetic steroids structurally related to testosterone) to prevent, mitigate or treat erectile dysfunction associated with RARP/RP. A large number of testosterone replacement drugs such as Androgel can easily be given to appropriate patients prior to or even following surgery. The amount of testosterone administered is sufficient to raise the free testosterone level into the high free testosterone range as defined above (generally greater than about 9 ng/dl). Where other androgens are used, the equivalent effectiveness of each different molecule in terms of testosterone is generally known. Sufficient androgen is given so that the effectiveness of the circulating level of androgen plus testosterone falls within the high free testosterone range. As will be clear to those of ordinary skill in the art, the testosterone or other androgen is administered at the usual amount and frequency. Circulating testosterone levels are measured at appropriate intervals (i.e., weekly or monthly) and the dosage adjusted if necessary.
We believe that preoperative supplementation will produce even more dramatic improvements. […]

[2] = cited from earlier work

## C[C@]12CC[C@H]3[C@@H](CCC4=CC(=O)CC[C@@]43C)[C@@H]1CC[C@@H]2O [testosterone]
[1]; supplementing low testosterone levels, anecdotal results
  recovery (of potency/sexual function) after prostate surgery: more rapid and more complete recovery
[1]; testosterone supplementation, limited data
  recurrence of the cancer: does not lead to recurrence of the cancer
[2]
  PSA values after testosterone replacement therapy: have not been shown to increase significantly
[2]; testosterone replacement after radical prostatectomy, small studies (7, 10 and 57 men), 13 and 19 months
  prostate specific antigen (PSA): without increasing prostate specific antigen (PSA)
